Measurements reported in US20220348543A1, “SALTS OF OMECAMTIV MECARBIL AND SOLID FORMS THEREOF” (SYNTHON B.V., priority 2019, published 2022).
Where a name gives a salt, the structure may show the parent alone. Read-outs that look alike come from different tables or passages of the source.

Columns and labels:
[1] = Solubility of Omecamtiv mecarbil salts in water solution (aqueous buffer) at different pH; type: physicochemical; settings: USP / Ph. Eur. descriptive terms, read-out: Category of solubility (Descriptive Term)
Procedure: The solubility of prepared salts was tested in water solution at different pH (1.2, 4.5 and 6.8) and compared to Omecamtiv mecarbil dihydrochloride monohydrate salt prepared according to a procedure disclosed in WO2006009726 application.
It can be concluded that solubility of all prepared salt is better that the solubility of dihydrochloride monohydrate salt.

[2] = Stability at 25° C. of the solid isolated from salt crystallisation; type: physicochemical; settings: crystallised from 2-butanone
Procedure: The preparation of Omecamtiv mecarbil methane sulfonic acid salt was tested also in following solvent: methanol, ethanol, isopropanol, 1-butanol, acetone and tetrahydrofurane. Solid obtainable from these solvents was not stable and it melted at a temperature 25° C. […] The solid Form M can be therefore used for purification of Omecamtiv mecarbil. The salt can be transformed into Omecamtiv mecarbil by contacting with a base (for example sodium hydrogen carbonate or potassium hydrogen carbonate or sodium carbonate or potassium carbonate or sodium hydroxide or potassium hydroxide) in a suitable solvent (for example an alcohol or acetone).
250 mg of Omecamtiv mecarbil was dissolved in a solvent (in Table below) at a temperature (in Table below). 40 μl methane sulfonic acid (1 eq. w.r.t. Omecamtiv mecarbil) was added. The mixture was cooled to 25° C. and stirred for 16 hours. If no solid appeared, mixture was then stirred at −15° C. Solid mass was filtered off and dried. The ratio between Omecamtiv mecarbil and the salt was determined by NMR as 1:2 (i.e. dimethane sulfonate salt).

| solubility ([1]; aqueous buffer pH 4.5) [mg/mL] | solubility ([1]; aqueous buffer pH 6.8) [mg/mL] | solubility ([1]; simulated gastric fluid, aqueous buffer pH 1.2) [mg/mL] | stability of the crystalline solid [2] | SMILES |
| --- | --- | --- | --- | --- |
| ≥ 1000 | ≥ 1000 | ≥ 1000 | – | COC(=O)N1CCN(Cc2cccc(NC(=O)Nc3ccc(C)nc3)c2F)CC1 [Omecamtiv mecarbil p-toluene sulfonic acid salt] |
| – | – | – | form M, stable at 25° C., | COC(=O)N1CCN(Cc2cccc(NC(=O)Nc3ccc(C)nc3)c2F)CC1 [Salt with methane sulfonic acid, Form M, Omecamtiv mecarbil methane sulfonic acid salt] |
